Where two headings read alike, the source gives them in different places.
Tests used:
[1] = system: Peptostreptocococcus micros (ATCC 33270); assay: PDT on endodontic pathogens in planktonic phase: P. micros; format: cell-based; conditions: methylene blue 25 μg/ml, 5 minutes, mean ± standard error; for Surviving species, PDT: red light 665 nm 30 J/cm^2
Experimental: (§1) The effects of PDT were investigated on endodontic pathogens in planktonic phase as well as on Enterococcus faecalis biofilms in experimentally infected root canals of extracted teeth. Strains of Porphyromonas gingivalis (ATCC 33277), P. intermedia (ATCC 25611), Fusobacterium nucleatum nucleatum (ATCC 25586), Peptostreptocococcus micros (ATCC 33270), Porphyromonas endodontalis (ATCC 35406), and E. faecalis (ATCC 29212) were sensitized with methylene blue (MB) (25 μg/ml) for 5 minutes followed by exposure to res light of 665 nm with an energy fluence of 30 J/cm^2. […] In Table 1, Surviving species are expressed as percentage-of-controls receiving neither methylene blue nor light. Each value is the mean of values obtained from 2 to 4 experiments (±standard error). The same concentration of MB in combination with red light (222 J/cm^2) was able to eliminate 97% of E. faecalis biofilm bacteria in root canals. Light was uniformly delivered at 360 degrees in the root canal system with a flexible optical fiber with cylindrical diffusers and a diameter of 500 μm. Table 1 presents the survival of endodontic bacteria after their incubation only with methylene blue (25 μg/ml) or methylene blue (25 μg/ml) and red light (30 J/cm^2): […]

E. faecalis (ATCC 29212) [2] = assay: PDT on endodontic pathogens in planktonic phase: E. faecalis; format: cell-based, Enterococcus faecalis
Experimental: as §1

[3] = system: Fusobacterium nucleatum nucleatum (ATCC 25586); assay: PDT on endodontic pathogens in planktonic phase: F. nuc. nuc.; format: cell-based; conditions: methylene blue 25 μg/ml, 5 minutes, mean ± standard error; for Surviving species, PDT: red light 665 nm 30 J/cm^2
Experimental: as §1

[4] = system: P. intermedia (ATCC 25611); assay: PDT on endodontic pathogens in planktonic phase: P. intermedia; format: cell-based, Prevotella intermedia; conditions: methylene blue 25 μg/ml, 5 minutes; for Surviving species, PDT: red light 665 nm 30 J/cm^2
Experimental: as §1

[5] = system: Porphyromonas gingivalis (ATCC 33277); assay: PDT on endodontic pathogens in planktonic phase: P. gingivalis; format: cell-based; conditions: methylene blue 25 μg/ml, 5 minutes; for Surviving species, PDT: red light 665 nm 30 J/cm^2
Experimental: as §1

[6] = system: Porphyromonas endodontalis (ATCC 35406); assay: PDT on endodontic pathogens in planktonic phase: P. endodontalis; format: cell-based; conditions: methylene blue 25 μg/ml, 5 minutes; for Surviving species, PDT: red light 665 nm 30 J/cm^2
Experimental: as §1

[7] = system: Enterococcus faecalis biofilms; assay: PDT on E. faecalis biofilms in experimentally infected root canals of extracted teeth; format: cell-based; conditions: MB 25 μg/ml in combination with red light 222 J/cm^2
Experimental: The effects of PDT were investigated on endodontic pathogens in planktonic phase as well as on Enterococcus faecalis biofilms in experimentally infected root canals of extracted teeth. Strains of Porphyromonas gingivalis (ATCC 33277), P. intermedia (ATCC 25611), Fusobacterium nucleatum nucleatum (ATCC 25586), Peptostreptocococcus micros (ATCC 33270), Porphyromonas endodontalis (ATCC 35406), and E. faecalis (ATCC 29212) were sensitized with methylene blue (MB) (25 μg/ml) for 5 minutes followed by exposure to res light of 665 nm with an energy fluence of 30 J/cm^2. […] In Table 1, Surviving species are expressed as percentage-of-controls receiving neither methylene blue nor light. Each value is the mean of values obtained from 2 to 4 experiments (±standard error). […] Light was uniformly delivered at 360 degrees in the root canal system with a flexible optical fiber with cylindrical diffusers and a diameter of 500 μm.

[8] = system: multispecies root canal biofilms comprising Actinomyces israelii, Fusobacterium nucleatum subspecies nucleatum, Porphyromonas gingivalis, and Prevotella …; assay: PDT on multispecies root canal biofilms in extracted human teeth, CFU assay; format: cell-based; conditions: MB 25 μg/mL 10 minutes, red light 665 nm 30 J/cm^2
Experimental: The photodynamic effects of methylene blue (MB) on multispecies root canal biofilms comprising Actinomyces israelii, Fusobacterium nucleatum subspecies nucleatum, Porphyromonas gingivalis, and Prevotella intermedia in experimentally infected root canals of extracted human teeth were investigated in vitro.
Root canal systems were incubated with MB (25 μg/mL) for 10 minutes followed by exposure to red light at 665 nm with an energy fluence of 30 J/cm^2. Light was delivered from a diode laser via a 250-μm diameter polymethyl methacrylate optical fiber that uniformly distributed light over 360 degrees (FIG. 2). […] In FIG. 5, each bar is the mean Logic, CFU levels (+standard error).

[9] = system: human gingival fibroblasts; assay: Cell viability, neutral red assay, fibroblasts; format: cell-based; conditions: 50 μg/mL MB, no light, 0 and 24 hours
Experimental: (§2) In this study, the viability of human gingival fibroblasts and osteoblasts in vitro was assessed after exposure to methylene blue (MB) and red light with parameters similar to those that may be applied in a clinical setting. […] Both cell types were sensitized with 50 μg/mL methylene blue followed by exposure to red light at 665 nm for 5 minutes with an irradiance of 10, 20, and 40 mW/cm^2. The power densities were 10, 20, and 40 mW/cm^2, corresponding with energy fluencies of 3, 6, and 12 J/cm^2, respectively. In previous studies, light with a power density of 100 mW/cm^2 was used for killing endodontic pathogens within infected root canal specimens in vitro. A portion of that light propagates in dentin and escapes from the tooth. The power density of light escaping from the root specimen ranges from 5 to 10 mW/cm^2 depending on the morphology of the root canal system. In the present study, up to fourfold greater power densities were used.
After photodynamic therapy (PDT), cell viability and mitochondrial activity were evaluated by the neutral red and MTT assay, respectively. The assessment of PDT-induced apoptosis was investigated by western blot analysis using cleaved poly(ADPribose) polymerase-specific antibodies. […] Twenty-four hours after treatment, cultures were stopped and analyzed by western blot using cleaved PARP− and b-actin-specific antibodies.

osteoblasts [10] = conditions: for reduction of viability, MB alone: human, 50 μg/mL
Experimental: as §2
(§3) After photodynamic therapy (PDT), cell viability and mitochondrial activity were evaluated by the neutral red and MTT assay, respectively. The assessment of PDT-induced apoptosis was investigated by western blot analysis using cleaved poly(ADPribose) polymerase-specific antibodies. […] Osteoblasts (A) and fibroblasts (B) were treated with MB only (lane MB+), light only (lane L+), or light and MB (lane L+MB+). Control cultures were left untreated (lane −) or treated with 200 μmol/L staurosporine (lane +). Twenty-four hours after treatment, cultures were stopped and analyzed by western blot using cleaved PARP− and b-actin-specific antibodies.

[11] = system: human gingival fibroblasts; conditions: 24 h, 50 μg/mL
Experimental: (§4) FIG. 7 presents two bar graphs on the growth of methylene blue (MB)-sensitized gingival fibroblasts and osteoblasts as determined by the MTT assay after their exposure to red light.
as §2, §3

osteoblasts [12] = system: osteoblasts
Experimental: as §4, §2, §3

[13] = system: human gingival fibroblasts; assay: PDT-induced apoptosis, western blot for cleaved PARP, fibroblasts; format: cell-based; conditions: twenty-four hours after treatment
Experimental: as §3

osteoblasts [14] = assay: PDT-induced apoptosis, western blot for cleaved PARP, osteoblasts; format: cell-based, human; conditions: twenty-four hours after treatment
Experimental: as §3

E. faecalis (ATCC 29212) [15] = system: E. faecalis (ATCC 29212)

CN(C)c1ccc2nc3ccc(=[N+](C)C)cc-3sc2c1 [methylene blue]
Surviving species, only methylene blue ([1]; no light): 21 ± 10.6 percentage-of-controls
Surviving species, PDT [1]: 0 percentage-of-controls
Surviving species, PDT ([1]; listed as MB): fully eliminated
Surviving species, only methylene blue (E. faecalis (ATCC 29212) [2]; methylene blue 25 μg/ml, 5 minutes, no light, mean ± standard error): 94.5 ± 17.6 percentage-of-controls
Surviving species, PDT (E. faecalis (ATCC 29212) [2]; methylene blue 25 μg/ml, 5 minutes, red light 665 nm 30 J/cm^2, mean ± standard error): 47 ± 12.1 percentage-of-controls
killing (E. faecalis (ATCC 29212) [2]; planktonic, MB 25 μg/ml 5 minutes, light 665 nm 30 J/cm^2): 53%
Surviving species, only methylene blue ([3]; no light): 5.5 ± 0.4 percentage-of-controls
Surviving species, PDT [3]: 0 percentage-of-controls
Surviving species, PDT ([3]; listed as MB): fully eliminated
Surviving species, only methylene blue ([4]; no light): 0 percentage-of-controls
Surviving species, PDT [4]: 0 percentage-of-controls
Surviving species, PDT ([4]; listed as MB): fully eliminated
Surviving species, only methylene blue ([5]; no light, mean ± standard error): 6.7 ± 0.1 percentage-of-controls
Surviving species, PDT [5]: 0 percentage-of-controls
Surviving species, PDT ([5]; listed as MB): fully eliminated
Surviving species, only methylene blue ([6]; no light): 0 percentage-of-controls
Surviving species, PDT [6]: 0 percentage-of-controls
Surviving species, PDT ([6]; listed as MB): fully eliminated
E. faecalis biofilm bacteria in root canals eliminated [7]: 97%
reduction of colony-forming unit counts (CFU), PDT [8]: up to 80%
mean CFU levels, combination of light and MB versus control or MB alone ([8]; FIG. 5): significantly lower than either control or MB alone
effect of MB alone on viability [9]: no effect
reduction of viability, MB alone (osteoblasts [10]; 0 h): 9.4%
reduction of viability, MB alone (osteoblasts [10]; 24 h): 14.6%
reduction of mitochondrial activity, L40+MB+ [11]: 18.5%
reduction of mitochondrial activity, MB alone (osteoblasts [12]; human, 0 h, 50 μg/mL): 3.1%
reduction of mitochondrial activity, L20+MB+ (osteoblasts [12]; human, 24 h, 50 μg/mL): approximately 34%
reduction of mitochondrial activity, L40+MB+ (osteoblasts [12]; human, 24 h, 50 μg/mL): approximately 34%
reduction of mitochondrial activity, MB alone (osteoblasts [12]; human, 24 h, 50 μg/mL): 13.5%
PARP cleavage, light and MB ([13]; lane L+MB+): Neither treatment resulted in PARP cleavage
PARP cleavage, MB only ([13]; lane MB+): Neither treatment resulted in PARP cleavage
PARP cleavage, light and MB (osteoblasts [14]; lane L+MB+): Neither treatment resulted in PARP cleavage
PARP cleavage, MB only (osteoblasts [14]; lane MB+): Neither treatment resulted in PARP cleavage
reduction of E. faecalis viability, PDT (E. faecalis (ATCC 29212) [15]; 6.25 μg/ml MB 5 minutes, light 665 nm 60 J/cm^2): 77.5%
reduction of bacterial viability, MB alone (E. faecalis (ATCC 29212) [15]; 6.25 μg/ml MB, no light): 19.5%

OCl [sodium hypochlorite]
effect of sodium hypochlorite on osteoblasts, neutral red assay (osteoblasts [10]): completely eliminated cells
effect of sodium hypochlorite on osteoblasts, MTT assay (osteoblasts [12]): completely eliminated cells

Reference: US20150030989A1, “Handheld Device for Delivering Photodynamic Therapy” (The Forsyth Institute, priority 2012, published 2015)
